The text below walks through data of patent US9140688B2, “Sperm staining and sorting methods” (INGURAN, LLC, priority 2011, dated 2015).

Holding throughout (assay type): cell-based
For data set [1], the system named is elk sperm. Description: Post thaw DNA fragmentation of elk sperm (Example 3). The method, then:
(§1) Each of deer and elk were collected in the Tris-egg yolk catch fluid described as a catch media in Example 1, and shipped for sorting.
(§2) A portion of each of the deer and the elk were stained by the red food dye No. 40 treatment 40% with 16 μL Hoechst 33342 and the yellow food dye No. 6 treatment with 14 μL Hoechst 33342 as described in Example 1.
(§3) Samples were each bulk sorted with the same machine and parameters described in Example 1. Both sorted X and sorted Y sperm were collected into a single catch. The sorted samples were then frozen like those described in Example 1.
(§4) Frozen thawed samples were then tested for post thaw motilities and post thaw DNA fragmentation. Post thaw motilities were slightly higher in Elk sorted with a yellow quencher, while a more significant difference existed in progressive motility. In Table 10, post thaw DNA fragmentation in Elk can be seen at about double after 48 hours when red food dye No. 40 is compared to yellow food dye No. 6 as a dead quencher.

Data set [2] has as its system elk sperm. Briefly: Post thaw motility of bulk sorted elk sperm (Example 3). Particulars: 0 HR; RED TALP with 16 μL, Y6 with 14 μL Hoechst 33342. The method, then:
as §1, §2, §3, §4

Another data set concerns bovine sperm. Description: Post thaw motility of sex sorted, frozen-thawed bovine sperm (Example 1). Particulars: average over all bulls, Red with 16-17 μl, Yellow with 14-15 μl Hoechst 33342 per 2 ml; for Post thaw motility, average 0 Hour: dye 20 g/L in second TALP. As for the experimental part: Sperm was collected from 10 different bulls on a routine collection schedule using an artificial vagina over the course of 4 days. The 10 bulls included both Jersey bulls and Holstein bulls. All ejaculates contained greater than 60% progressive motility and greater than 70% morphological normal sperm. Antibiotics were added within 15 minutes of collection.
Red food dye treatment 40% —A reduced volume of red food dye No. 40 control was established. Sperm was diluted to 160×10^6 sperm per ml in a modified TALP buffer, as described in Table 1, at a pH of 7.4. Samples collected from Jersey bulls were incubated with 16 μl of Hoechst 33342 per 2 ml of sample for between 45 and 60 minutes at 34° C., while samples collected from Holstein bulls were incubated 17 μl of Hoechst 33342 per 2 ml of sample for between 45 and 60 minutes at 34° C. After incubation an equal volume of a second modified TALP was added reducing the concentration to 80×10^6. The second modified TALP includes the components described in Table 1 with the addition of 4% egg yolk, 40 μM red food dye No. 40 (20 g/L) and the pH dropped to 5.5 with HCl.
Yellow Food dye treatment—Yellow food dye was included in a second group at an equal concentration. Sperm was diluted to 160×10^6 sperm per ml in a modified TALP buffer, as described in Table 1, at a pH of 7.4. Samples collected from Jersey bulls were incubated with 14 μl of Hoechst 33342 per 2 ml of sample for between 45 and 60 minutes at 34° C., while sample collected from Holstein bulls were incubated 15 μl of Hoechst 33342 per 2 ml of sample for between 45 and 60 minutes at 34° C. After incubation an equal volume of a second modified TALP was added reducing the concentration to 80×10^6. The second modified TALP includes the components described in Table 1 with the addition 4% egg yolk, 20 g/L yellow food dye No. 6 and a pH dropped to 5.5 with HCl.
Just prior to sorting, each sample was filtered though a 40 μm nylon mesh. Each sample was sorted with an MoFlo SX XDP (Beckman Coulter, Inc., CA USA) operating at 40 psi. A tris-citrate-fructose sheath fluid was used comprising Tris(hydroxymethyl)aminomethane (Sigma Chemical Co, St. Louis, Mo., USA) citric acid monohydrate (Sigma Chemical Co, St. Louis, Mo., USA) and fructose (Sigma Chemical Co, St. Louis, Mo., USA). Antibiotics were additionally added to the sheath fluid.
Unquenched sperm having the desired sex characteristics were collected into a single tube with a tris-egg yolk catch fluid and the remaining sperm was removed with waste. […]
Straws were thawed the following day for motility measurements at 0 hour and 3 hours. Percent intact acrosomes were measured as well, and the overall averages over all bulls on each day are illustrated in Table 3. […]

A further data set concerns canine sperm. Briefly: Post thaw motility of sex sorted canine sperm on CASA (Example 4). Particulars: for Motile, average / Progressive, average: 0 Hr post thaw. The method, then: Sperm was collected from a single canine at room temperature into CaniPro Chill 5, available from Minitube, Wis., USA, then centrifuged into a pellet and resuspended in a Tris buffer at a pH of 6.8.
Samples were extended to 40×10^6 sperm/ml in 1 ml volumes with the Tris buffer described in Example 1 but set to a pH of 7.2. Ten samples were then stained 4, 4, 5, 5, 7, 8, 8, 9, 9, and 10 μL of Hoechst 33342 and quenched with one of two quenching dyes at a concentration of 50 μM in a second buffer Tris buffer.
Red food dye No. 40 quencher—1 ml Tris at a pH 6.3 was added with red food dye No. 40 into samples stained with 4, 5, 8, 9, 10 μL Hoechst 33342. The red food dye No. 40 was added at a concentration of about 50 μM.
Yellow food dye No. 6 quencher—1 ml Tris at a pH 6.3 was added with yellow food dye No. 6 into samples stained with 4, 5, 7, 8, 9 μL Hoechst 33342. The yellow food dye No. 6 was added at the same concentration as the red food dye No. 40 quencher, at about 50 μM.
5 million cells were sex sorted with a MoFlo SX XPD into 50 mL Falcon tubes having 3.5 mL of a Tris-egg yolk catch fluid, described in Example 1 for both X and Y populations. Two samples were sorted, the red food dye No. 40 quenched treatment with 9 μL Hoechst 33342 and the yellow food dye […] quenched treatment with 7 μL Hoechst 33342.
Straws were then frozen and stored in liquid nitrogen.
Straws were thawed for 30 sec in a 38° C. water bath and their motilities were examined on CASA.
Table 12 illustrates the average motilities and progressive motilities for the sorted treatments. Canine sperm quenched with yellow food dye No. 6 provided about 4.5% more motile sperm in the X population and 6.5% more motile sperm in the Y population. Similarly, the yellow quenched dye provided 7% better progressive motility in the X population and 8% better progressive motility in the Y population.

In the data set on elk sperm [1] (elk, 0 h), `COc1cc(S(=O)(=O)O)c(C)cc1N=Nc1c(O)ccc2cc(S(=O)(=O)O)ccc12` [Red 40, 6-hydroxy-5-[(2-methoxy-5-methyl-4-sulfophenyl)azo]-2-naphthalenesulfonic acid, reference compound] displayed a Post Thaw DNA fragmentation Elk, Post Sort of 0% and a Post Thaw DNA fragmentation Elk, Pre-sort of 2.3%. In the data set with elk sperm [1] (elk, 24 h), the Post Thaw DNA fragmentation Elk, Post Sort was found to be 0.3% and the Post Thaw DNA fragmentation Elk, Pre-sort came out at 5.6%. In the data set with elk sperm [1] (elk, 48 h), this molecule came in with a Post Thaw DNA fragmentation Elk, Post Sort of 0.7% and a Post Thaw DNA fragmentation Elk, Pre-sort of 6%. In the data set with elk sperm [2], the “Post Thaw Motility Elk, Motile” value stood at 51.0 and the “Post Thaw Motility Elk, Progressive” value is recorded as 29.0. For the same molecule, in the data set on bovine sperm, the “Post thaw motility, average 3 Hour” value was found to be 47.0% and the “Post thaw motility, average 0 Hour” value was 56.6%. Moreover, in the data set on canine sperm (X population), the “Motile, average” value is listed as 19.5 and the “Progressive, average” value is on record as 11.5. Besides, in the data set on canine sperm (Y population), the “Motile, average” value was found to be 18.5 and the “Progressive, average” value was found to be 13.

Regarding `O=S(=O)([O-])c1ccc(N=Nc2c(O)ccc3cc(S(=O)(=O)[O-])ccc23)cc1.[Na+].[Na+]` [Yellow 6, Disodium 6-hydroxy-5-[(4-sulfophenyl)azo]-2-naphthalenesulfononate], in the data set with elk sperm [1] (0 HR, unit assumed), the Post Thaw DNA fragmentation Elk, Post Sort came to 0% and the Post Thaw DNA fragmentation Elk, Pre-sort was determined as 2.3%. In the data set with elk sperm [1] (24 HR, unit assumed), this molecule showed a Post Thaw DNA fragmentation Elk, Post Sort of 0% and a Post Thaw DNA fragmentation Elk, Pre-sort of 3.3%. For the same molecule, in the data set on elk sperm [1] (48 HR, unit assumed), the Post Thaw DNA fragmentation Elk, Post Sort stood at 0.3% and the Post Thaw DNA fragmentation Elk, Pre-sort came out at 3.7%. Also, in the data set with elk sperm [2], the “Post Thaw Motility Elk, Motile” value is 55.5 and the “Post Thaw Motility Elk, Progressive” value is 38.0. In the data set with bovine sperm, the “Post thaw motility, average 3 Hour” value is 49.0% and the “Post thaw motility, average 0 Hour” value was 57.7%. Also, in the data set with canine sperm (X population), the “better progressive motility than with red quencher” value is listed as 7%; the “more motile sperm than with red quencher” value is “about 4.5%”; the “Motile, average” value worked out at 24; the “Progressive, average” value is 18.5. Further, in the data set on canine sperm (Y population), the “better progressive motility than with red quencher” value amounted to 8%; the “more motile sperm than with red quencher” value stood at 6.5%; the “Motile, average” value is 25; the “Progressive, average” value stood at 21.
